ChEMBL document CHEMBL4418493, “N-hydroxyformamide compounds and compositions comprising them for use as BMP1, TLL1 and/or TLL2 inhibitors” (2018)

Experiments:
[1] = Reduction in PICP levels in human cardiac fibroblasts incubated for 24 to 48 hrs by ELISA; assay type: functional
[2] = Reduction in mature collagen deposition levels in human cardiac fibroblasts incubated for 24 to 48 hrs by immunostaining based assay; assay type: functional
[3] = Drug metabolism in heparinized pooled human plasma at pH 7.5 assessed as formation of (S)-2-(2-(carboxymethoxy)-4-(5-((((R)-2-((R)-1-(N-hydroxyformamido)propyl)heptanamido)methyl)carbamoyl)furan-2-yl)benzamido)succinic acid at 100 to 2000 ng/ml incubated up to 4 or 24 hrs by LC-MS/MS analysis; assay type: ADME, cell-free; details: pH 7.5, 24 h
[4] = Drug metabolism in heparinized pooled human plasma at pH 7.5 assessed as formation of (S)-2-(2-ethoxy-4-(5-((((R)-2-((R)-1-(N-hydroxyformamido)propyl)heptanamido)methyl) carbamoyl)furan-2-yl)benzamido)succinic acid at 100 to 2000 ng/ml incubated up to 4 or 24 hrs by LC-MS/MS analysis; assay type: ADME, cell-free; details: pH 7.5, 24 h
[5] = Drug metabolism in heparinized pooled human plasma at pH 7.5 assessed as formation of (3-ethoxy-5-(5-((((R)-2-((R)-1-(N-hydroxyformamido)propyl)heptanamido)methyl)carbamoyl) furan-2-yl)phenyl)phosphonic acid at 100 to 2000 ng/ml incubated up to 4 or 24 hrs by LC-MS/MS analysis; assay type: ADME, cell-free; details: pH 7.5, 24 h

Drug metabolism [3] | Drug metabolism [4] | Drug metabolism [5] | Structure (SMILES) | IC50 [1] [µM] | IC50 [2] [µM]
Metabolite_Detected | – | – | CCCCC[C@@H](C(=O)NCNC(=O)c1ccc(-c2ccc(C(=O)N[C@@H](CC(=O)O)C(=O)O)c(OCC(=O)O)c2)o1)[C@@H](CC)N(C=O)OC(=O)c1ccc(OC)cc1C.N.N.N | < 3.98 | < 1
– | Metabolite_Detected | – | CCCCC[C@@H](C(=O)NCNC(=O)c1ccc(-c2ccc(C(=O)N[C@@H](CC(=O)O)C(=O)O)c(OCC)c2)o1)[C@@H](CC)N(C=O)OC(=O)c1ccc(-n2cnnc2)cc1 | < 3.98 | < 1
– | Metabolite_Detected | – | CCCCC[C@@H](C(=O)NCNC(=O)c1ccc(-c2ccc(C(=O)N[C@@H](CC(=O)O)C(=O)O)c(OCC)c2)o1)[C@@H](CC)N(C=O)OC(=O)c1ccc(OC)cc1OC(F)(F)F | < 3.98 | < 1
– | – | Metabolite_Detected | CCCCC[C@@H](C(=O)NCNC(=O)c1ccc(-c2cc(OCC)cc(P(=O)(O)O)c2)o1)[C@@H](CC)N(C=O)OC(=O)Nc1ccccc1 | < 3.98 | –
– | – | Metabolite_Detected | CCCCC[C@@H](C(=O)NCNC(=O)c1ccc(-c2cc(OCC)cc(P(=O)(O)O)c2)o1)[C@@H](CC)N(C=O)OC(=O)c1ccc(CN2CCOCC2)cc1C | < 3.98 | –
– | – | Metabolite_Detected | CCCCC[C@@H](C(=O)NCNC(=O)c1ccc(-c2cc(OCC)cc(P(=O)(O)OCOC(=O)C(C)C)c2)o1)[C@@H](CC)N(O)C=O | – | –
– | – | Metabolite_Detected | CCCCC[C@@H](C(=O)NCNC(=O)c1ccc(-c2cc(OCC)cc(P(=O)(O)O)c2)o1)[C@@H](CC)N(C=O)OC(=O)c1ccc2c(c1)OCCN2C | < 3.98 | –
– | Metabolite_Detected | – | CCCCC[C@@H](C(=O)NCNC(=O)c1ccc(-c2ccc(C(=O)N[C@@H](CC(=O)O)C(=O)O)c(OCC)c2)o1)[C@@H](CC)N(C=O)OC(=O)c1ccccc1C | < 3.98 | < 1
– | – | Metabolite_Detected | CCCCC[C@@H](C(=O)NCNC(=O)c1ccc(-c2cc(OCC)cc(P(=O)(O)O)c2)o1)[C@@H](CC)N(C=O)OC(=O)c1ccc(CN2CCOCC2)cc1 | < 3.98 | –
– | – | Metabolite_Detected | CCCCC[C@@H](C(=O)NCNC(=O)c1ccc(-c2cc(OCC)cc(P(=O)(O)O)c2)o1)[C@@H](CC)N(C=O)OC(=O)C(CC)CC | < 3.98 | –
– | Metabolite_Detected | – | CCCCC[C@@H](C(=O)NCNC(=O)c1ccc(-c2ccc(C(=O)N[C@@H](CC(=O)O)C(=O)O)c(OCC)c2)o1)[C@@H](CC)N(C=O)OC(=O)NC(C)(C)C | < 3.98 | < 1
– | – | Metabolite_Detected | CCCCC[C@@H](C(=O)NCNC(=O)c1ccc(-c2cc(OCC)cc(P(=O)(O)O)c2)o1)[C@@H](CC)N(C=O)OC(=O)c1ccccc1O | < 3.98 | –
– | Metabolite_Detected | – | CCCCC[C@@H](C(=O)NCNC(=O)c1ccc(-c2ccc(C(=O)N[C@@H](CC(=O)O)C(=O)O)c(OCC)c2)o1)[C@@H](CC)N(C=O)OC(=O)NC(C)(C)c1ccccc1 | < 3.98 | < 1
– | Metabolite_Detected | – | CCCCC[C@@H](C(=O)NCNC(=O)c1ccc(-c2ccc(C(=O)N[C@@H](CC(=O)O)C(=O)O)c(OCC)c2)o1)[C@@H](CC)N(C=O)OC(=O)c1ccc(O)cc1 | < 3.98 | < 1
– | Metabolite_Detected | – | CCCCC[C@@H](C(=O)NCNC(=O)c1ccc(-c2ccc(C(=O)N[C@@H](CC(=O)O)C(=O)O)c(OCC)c2)o1)[C@@H](CC)N(C=O)OC(=O)c1ccc(OC)cc1OC | < 3.98 | < 1
– | Metabolite_Detected | – | CCCCC[C@@H](C(=O)NCNC(=O)c1ccc(-c2ccc(C(=O)N[C@@H](CC(=O)O)C(=O)O)c(OCC)c2)o1)[C@@H](CC)N(C=O)OC(=O)c1ccccc1C(C)C | < 3.98 | < 1

Drug metabolism [3] | Drug metabolism [4] | Drug metabolism [5] | Structure (SMILES) | IC50 [1] [µM] | IC50 [2] [µM]
– | – | Metabolite_Detected | CCCCC[C@@H](C(=O)NCNC(=O)c1ccc(-c2cc(OCC)cc(P(=O)(O)O)c2)o1)[C@@H](CC)N(C=O)OC(=O)c1ccc(OC)cc1C(C)C | < 3.98 | –
– | – | Metabolite_Detected | CCCCC[C@@H](C(=O)NCNC(=O)c1ccc(-c2cc(OCC)cc(P(=O)(O)O)c2)o1)[C@@H](CC)N(C=O)OC(=O)NC(C)(C)C | < 3.98 | –
– | – | Metabolite_Detected | CCCCCCCCC(=O)ON(C=O)[C@H](CC)[C@@H](CCCCC)C(=O)NCNC(=O)c1ccc(-c2cc(OCC)cc(P(=O)(O)O)c2)o1 | – | –
– | – | Metabolite_Detected | CCCCC[C@@H](C(=O)NCNC(=O)c1ccc(-c2cc(OCC)cc(P(=O)(O)O)c2)o1)[C@@H](CC)N(C=O)OC(=O)c1ccc(F)cc1C(C)C | – | –
– | Metabolite_Detected | – | CCCCC[C@@H](C(=O)NCNC(=O)c1ccc(-c2ccc(C(=O)N[C@@H](CC(=O)O)C(=O)O)c(OCC)c2)o1)[C@@H](CC)N(C=O)OC(=O)c1ccc(OC)cc1F | < 3.98 | < 1
– | Metabolite_Detected | – | CCCCC[C@@H](C(=O)NCNC(=O)c1ccc(-c2ccc(C(=O)N[C@@H](CC(=O)O)C(=O)O)c(OCC)c2)o1)[C@@H](CC)N(C=O)OC(=O)c1cccc(-n2cccc2)c1 | < 3.98 | < 1
– | – | Metabolite_Detected | CCCCC[C@@H](C(=O)NCNC(=O)c1ccc(-c2cc(OCC)cc(P(=O)(O)OCc3oc(=O)oc3C)c2)o1)[C@@H](CC)N(O)C=O | – | –
– | Metabolite_Detected | – | CCCCC[C@@H](C(=O)NCNC(=O)c1ccc(-c2ccc(C(=O)N[C@@H](CC(=O)O)C(=O)O)c(OCC)c2)o1)[C@@H](CC)N(C=O)OC(=O)c1ccc(OC)cc1C(F)(F)F | < 3.98 | < 1
– | Metabolite_Detected | – | CCCCC[C@@H](C(=O)NCNC(=O)c1ccc(-c2ccc(C(=O)N[C@@H](CC(=O)O)C(=O)O)c(OCC)c2)o1)[C@@H](CC)N(C=O)OC(=O)c1ccc(N2CCCC2)c(F)c1.N.N | < 3.98 | < 1
– | Metabolite_Detected | – | CCCCC[C@@H](C(=O)NCNC(=O)c1ccc(-c2ccc(C(=O)N[C@@H](CC(=O)O)C(=O)O)c(OCC)c2)o1)[C@@H](CC)N(C=O)OC(=O)OC(C)(C)C | < 3.98 | < 1
– | Metabolite_Detected | – | CCCCC[C@@H](C(=O)NCNC(=O)c1ccc(-c2ccc(C(=O)N[C@@H](CC(=O)O)C(=O)O)c(OCC)c2)o1)[C@@H](CC)N(C=O)OC(=O)c1c(C)ccnc1C | < 3.98 | < 1
– | – | Metabolite_Detected | CCCCC[C@@H](C(=O)NCNC(=O)c1ccc(-c2cc(OCC)cc(P(=O)(OCOC(=O)C(C)C)OCOC(=O)C(C)C)c2)o1)[C@@H](CC)N(O)C=O | – | –
– | – | Metabolite_Detected | CCCCC[C@@H](C(=O)NCNC(=O)c1ccc(-c2cc(OCC)cc(P(=O)(O)O)c2)o1)[C@@H](CC)N(C=O)OC(=O)NC(C)C | < 3.98 | –
– | Metabolite_Detected | – | CCCCC[C@@H](C(=O)NCNC(=O)c1ccc(-c2ccc(C(=O)N[C@@H](CC(=O)O)C(=O)O)c(OCC)c2)o1)[C@@H](CC)N(C=O)OC(=O)c1ccc(C(F)(F)F)cc1C | < 3.98 | < 1
– | Metabolite_Detected | – | CCCCC[C@@H](C(=O)NCNC(=O)c1ccc(-c2ccc(C(=O)N[C@@H](CC(=O)OCOC(=O)C(C)C)C(=O)OCOC(=O)C(C)C)c(OCC)c2)o1)[C@@H](CC)N(O)C=O | < 3.98 | < 1
Metabolite_Detected | – | – | CCCCC[C@@H](C(=O)NCNC(=O)c1ccc(-c2ccc(C(=O)N[C@@H](CC(=O)O)C(=O)O)c(OCC(=O)O)c2)o1)[C@@H](CC)N(C=O)OC(=O)C(CC)CC | < 3.98 | < 1

Structure (SMILES) | Drug metabolism [3] | Drug metabolism [4] | Drug metabolism [5] | IC50 [1] [µM] | IC50 [2] [µM]
CCCCC[C@@H](C(=O)NCNC(=O)c1ccc(-c2cc(OCC)cc(P(=O)(O)O)c2)o1)[C@@H](CC)N(C=O)OC(=O)c1ccc2c(c1)N(C)CCO2.N.N | – | – | Metabolite_Detected | < 3.98 | –
CCCCC[C@@H](C(=O)NCNC(=O)c1ccc(-c2cc(OCC)cc(P(=O)(O)O)c2)o1)[C@@H](CC)N(C=O)OC(=O)c1ccc(N2CCCC2=O)cc1.N.N | – | – | Metabolite_Detected | < 3.98 | –
CCCCC[C@@H](C(=O)NCNC(=O)c1ccc(-c2cc(OCC)cc(P(=O)(O)O)c2)o1)[C@@H](CC)N(C=O)OC(=O)c1ccc(OC)cc1C.N.N | – | – | Metabolite_Detected | < 3.98 | –
CCCCC[C@@H](C(=O)NCNC(=O)c1ccc(-c2cc(OCC)cc(P(=O)(O)O)c2)o1)[C@@H](CC)N(C=O)OC(=O)c1ccc(N2CCCC2)c(F)c1.N.N | – | – | Metabolite_Detected | < 3.98 | –
CCCCC[C@@H](C(=O)NCNC(=O)c1ccc(-c2cc(OCC)cc(P(=O)(O)O)c2)o1)[C@@H](CC)N(C=O)OC(=O)c1ccc(N2CCOCC2)cc1C.N.N | – | – | Metabolite_Detected | < 3.98 | –
CCCCC[C@@H](C(=O)NCNC(=O)c1ccc(-c2cc(OCC)cc(P(=O)(O)O)c2)o1)[C@@H](CC)N(C=O)OC(=O)c1cccc(N2CCCC2)c1.N.N | – | – | Metabolite_Detected | – | –
CCCCC[C@@H](C(=O)NCNC(=O)c1ccc(-c2cc(OCC)cc(P(=O)(O)O)c2)o1)[C@@H](CC)N(C=O)OC(=O)c1c(C)cccc1OCOP(=O)(O)O.N.N.N.N | – | – | Metabolite_Detected | < 3.98 | –
CCCCC[C@@H](C(=O)NCNC(=O)c1ccc(-c2cc(OCC)cc(P(=O)(O)O)c2)o1)[C@@H](CC)N(C=O)OC(=O)c1ccc(N2CCCC2)cc1.N.N | – | – | Metabolite_Detected | < 3.98 | –
